Results published in US20210395239A1 (Hoffmann-La Roche Inc., priority 2018, published 2021).
pIC50: −log10 of the molar value.

Experiments:
CYP2D6 = target: T1, CYP2D6 (Homo sapiens, UniProt P10635); experiment: CYP inhibition assay in human liver microsome, CYP2D6; assay type: in vitro ADME; conditions: human, human liver microsomes, probe dextromethorphan 5 μM, substrate dextromethorphan 5 μM, second value of 2C9/2D6/3A4
T1 construct: tissue BD-Gentest 452117; host or cells: human liver microsomes
T1 sequence (P10635 whole entry): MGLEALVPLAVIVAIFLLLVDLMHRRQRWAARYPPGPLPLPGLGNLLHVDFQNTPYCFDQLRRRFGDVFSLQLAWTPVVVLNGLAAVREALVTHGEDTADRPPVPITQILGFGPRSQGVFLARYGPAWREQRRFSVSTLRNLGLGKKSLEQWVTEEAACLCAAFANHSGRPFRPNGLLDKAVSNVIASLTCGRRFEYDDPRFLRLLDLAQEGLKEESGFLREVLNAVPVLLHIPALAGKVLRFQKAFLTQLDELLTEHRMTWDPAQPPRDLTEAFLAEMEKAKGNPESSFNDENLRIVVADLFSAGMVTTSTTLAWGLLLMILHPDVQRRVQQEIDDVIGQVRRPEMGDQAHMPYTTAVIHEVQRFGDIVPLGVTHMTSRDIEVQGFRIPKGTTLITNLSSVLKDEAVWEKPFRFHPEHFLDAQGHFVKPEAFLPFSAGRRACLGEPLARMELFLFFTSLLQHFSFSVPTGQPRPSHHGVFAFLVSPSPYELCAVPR
Procedure: (§1) This is a high throughput screening assay used for assessment of reversible inhibition of CYP2C9, CYP2D6, and CYP3A4 activity of test compounds in human liver microsome (HLM) in early discovery stage.
(§2) 10 mM DMSO stock solutions of test compounds were diluted in DMSO to generate 2 mM intermediate stock solution. 250 nL, of intermediate stock solution were transferred in duplicate into 3 separate 384 well microtitre plates (assay-ready plates). A mixture of HLM and each substrate was made up. 45 μL of HLM substrate mix was then transferred to each well of an assay ready plate and mixed. The negative (solvent) and positive controls (standard inhibitor for each CYP) were included in each assay ready plate. The assay ready plate was warmed to 37° C. in an incubator over 10 minutes. 5 μL pre-warmed NADPH regenerating system was added to each incubation well to start the reaction. Final incubation volume was 50 μL. The assay plate then was placed back in the 37° C. incubator. After incubation (10 minutes for CYP2D6) for 5 minutes, incubates were quenched by addition of 50 μL 100% acetonitrile containing internal standards (400 ng/mL 13C6-4′-OH-Diclofenac, 20 ng/mL D3-Dextrorphan and 20 ng/mL D4-1′OH-Midazolam). The supernatants were collected for RapidFire/MS/MS analysis.
(§3) RapidFire online solid phase extraction/sample injection system (Agilent) coupled with API4000 triple quadrupole mass spectrometer (AB Sciex) were used for sample analysis. The mobile phase composed of acetonitrile and water supplemented with 0.1% formic acid. A C4 solid phase extraction cartridge is used for sample separation. MS detection is achieved in positive ion MRM mode.
(§4) Peak areas for substrate, metabolite and internal standard are determined using the RapidFire integrator software (version 3.6.12009.12296). Peak area ratios (PAR) of metabolite and internal standard (stable-labelled metabolite) are then calculated. The measurement window for each experiment is then defined:
(§5) PAR (0% activity)=average PAR for all incubations containing concentrated inhibitor; Par (100% activity)=average PAR for all incubations containing no inhibitor (DMSO controls); % Activity (test inhibitor)=[PAR (test inhibitor)−PAR (0% activity)]/[PAR (100% activity)−PAR (0% activity)]; % Inhibition (test inhibitor)=100-% Activity (test inhibitor).

CYP3A4 = target: T2, CYP3A4 (Homo sapiens, UniProt P08684); experiment: CYP inhibition assay in human liver microsome, CYP3A4; assay type: in vitro ADME; conditions: human, human liver microsomes, probe midazolam 5 μM, substrate midazolam 5 μM, third value of 2C9/2D6/3A4
T2 construct: tissue BD-Gentest 452117; host or cells: human liver microsomes
T2 sequence (P08684 whole entry): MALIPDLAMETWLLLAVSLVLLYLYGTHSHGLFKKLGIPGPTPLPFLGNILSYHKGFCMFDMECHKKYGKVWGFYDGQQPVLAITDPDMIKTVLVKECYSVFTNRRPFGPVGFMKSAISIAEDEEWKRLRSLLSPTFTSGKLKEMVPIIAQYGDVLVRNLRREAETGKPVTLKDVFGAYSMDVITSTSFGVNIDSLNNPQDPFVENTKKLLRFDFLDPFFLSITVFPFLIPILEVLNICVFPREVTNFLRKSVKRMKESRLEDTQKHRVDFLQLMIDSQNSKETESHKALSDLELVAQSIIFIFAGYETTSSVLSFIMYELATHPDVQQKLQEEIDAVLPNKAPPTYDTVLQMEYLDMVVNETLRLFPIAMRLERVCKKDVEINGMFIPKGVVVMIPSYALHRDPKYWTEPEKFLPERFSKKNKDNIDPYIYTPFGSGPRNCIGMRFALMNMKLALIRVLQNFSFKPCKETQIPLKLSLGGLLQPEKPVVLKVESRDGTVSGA
Procedure: as §1, §2, §3, §4, §5

human TLR7 = target: T3, human TLR7 (Homo sapiens, UniProt Q9NYK1); experiment: HEK293-Blue-hTLR-7 cells assay (SEAP reporter, R848 stimulation); assay type: cell-based; conditions: HEK293-Blue-hTLR7 cells, R848, 20 hrs; read-out: HEK/hTLR7 IC50
T3 construct: host or cells: HEK293 (HEK-Blue hTLR7)
T3 sequence (Q9NYK1 27-1049): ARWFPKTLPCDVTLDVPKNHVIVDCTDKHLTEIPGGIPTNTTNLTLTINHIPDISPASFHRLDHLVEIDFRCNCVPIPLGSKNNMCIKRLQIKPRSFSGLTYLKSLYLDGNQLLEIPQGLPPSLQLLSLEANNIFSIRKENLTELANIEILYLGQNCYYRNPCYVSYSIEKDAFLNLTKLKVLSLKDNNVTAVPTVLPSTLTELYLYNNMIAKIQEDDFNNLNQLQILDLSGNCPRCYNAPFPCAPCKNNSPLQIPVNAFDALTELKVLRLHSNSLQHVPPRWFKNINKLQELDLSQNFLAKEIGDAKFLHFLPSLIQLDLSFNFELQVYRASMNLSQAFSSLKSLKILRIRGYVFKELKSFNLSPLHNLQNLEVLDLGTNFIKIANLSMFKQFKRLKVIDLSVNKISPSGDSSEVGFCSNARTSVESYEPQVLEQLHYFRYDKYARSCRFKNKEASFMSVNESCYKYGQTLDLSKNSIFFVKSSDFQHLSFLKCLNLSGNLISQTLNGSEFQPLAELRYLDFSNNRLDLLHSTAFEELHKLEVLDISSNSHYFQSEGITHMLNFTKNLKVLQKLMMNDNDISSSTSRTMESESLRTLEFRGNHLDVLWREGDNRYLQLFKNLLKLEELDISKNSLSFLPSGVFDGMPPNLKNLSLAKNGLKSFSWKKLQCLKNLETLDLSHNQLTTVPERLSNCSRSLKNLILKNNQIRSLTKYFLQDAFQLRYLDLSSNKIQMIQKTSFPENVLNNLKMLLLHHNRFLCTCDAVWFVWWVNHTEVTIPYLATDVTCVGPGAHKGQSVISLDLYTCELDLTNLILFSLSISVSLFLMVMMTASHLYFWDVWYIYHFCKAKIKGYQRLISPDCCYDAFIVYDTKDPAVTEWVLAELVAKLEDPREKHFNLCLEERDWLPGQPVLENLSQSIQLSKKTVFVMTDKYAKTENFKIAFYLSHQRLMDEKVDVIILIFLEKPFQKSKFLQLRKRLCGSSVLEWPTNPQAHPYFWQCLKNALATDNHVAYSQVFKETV
How it was run: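 HEK293-Blue-hTLR7 cells (NF-κB/AP-1-driven SEAP reporter) were stimulated with R848 alongside serially diluted compound at 1% final DMSO for 20 h at 37 °C. Supernatant SEAP was then developed with QUANTI-Blue for 2 h at 37 °C and absorbance read at 620–655 nm; antagonism is measured as reduced reporter signal.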

SMILES | inhibition at 10 min, 10 µM (CYP2D6) [%] | inhibition at 5 min, 10 µM (CYP3A4) [%] | pIC50 (human TLR7)
C[C@@H]1CN(c2ccc(C#N)c3nccnc23)C[C@H](CN2CCN(c3nccc(N4C[C@@H](N)[C@H](F)C4)n3)CC2)O1 [Example 119, 8-[(2S,6R)-2-[[4-[4-[(3R,4R)-3-amino-4-fluoro-pyrrolidin-1-yl]pyrimidin-2-yl]piperazin-1-yl]methyl]-6-methyl-morpholin-4-yl]quinoxaline-5-carbonitrile] | -8.5 | 23.5 | 7.80
C[C@@H]1CN(c2ccc(C#N)n3ncc(F)c23)C[C@H](CN2CC(c3ccc(N4C[C@@H]5C[C@H]4CN5)nc3)C2)O1 [Example 165, 4-[(2S,6R)-2-[[3-[6-[(1S,4S)-2,5-diazabicyclo[2.2.1]heptan-2-yl]-3-pyridyl]azetidin-1-yl]methyl]-6-methyl-morpholin-4-yl]-3-fluoro-pyrazolo[1,5-a]pyridine-7-carbonitrile] | 17.5 | 9 | 8.15
C[C@@H]1CN(c2ccc(C#N)c3ncccc23)C[C@H](CN2CC(c3cccc(N4CCNCC4)c3)C2)O1 [Example 4, 5-[(2R,6S)-2-methyl-6-[[3-(3-piperazin-1-ylphenyl)azetidin-1-yl]methyl]morpholin-4-yl]quinoline-8-carbonitrile] | 11 | 0.5 | 7.80
[2H]c1nc2c(C#N)ccc(N3C[C@H](CN4CCN(c5nc(C)cc(N6CC(N)C6)n5)CC4)O[C@H](C)C3)c2nc1[2H] [Example 124, 8-[(2S,6R)-2-[[4-[4-(3-aminoazetidin-1-yl)-6-methyl-pyrimidin-2-yl]piperazin-1-yl]methyl]-6-methyl-morpholin-4-yl]-2,3-dideuterio-quinoxaline-5-carbonitrile] | 9.5 | 16 | 8.30
C[C@@H]1CN(c2ccc(C#N)n3ncc(F)c23)C[C@H](CN2CC(c3ccc(N4CC(C)(N)C4)cc3)C2)O1 [Example 160, 4-[(2S,6R)-2-[[3-[4-(3-amino-3-methyl-azetidin-1-yl)phenyl]azetidin-1-yl]methyl]-6-methyl-morpholin-4-yl]-3-fluoro-pyrazolo[1,5-a]pyridine-7-carbonitrile] | 17 | 4.5 | 7.96
[2H]c1ccc2c(N3C[C@H](CN4CCN(c5ccc(N6C[C@@H](N)[C@H](OC)C6)nc5)CC4)O[C@H](C)C3)ccc(C#N)c2n1 [Example 143, 5-[(2S,6R)-2-[[4-[6-[(3R,4R)-3-amino-4-methoxy-pyrrolidin-1-yl]-3-pyridyl]piperazin-1-yl]methyl]-6-methyl-morpholin-4-yl]-2-deuterio-quinoline-8-carbonitrile] | -30 | 18 | 7.68
[2H]c1ccc2c(N3C[C@H](CN4CCN(c5ccc(N6CC(C)(N)C6)nc5)CC4)O[C@H](C)C3)ccc(C#N)c2n1 [Example 132, 5-[(2S,6R)-2-[[4-[6-(3-amino-3-methyl-azetidin-1-yl)-3-pyridyl]piperazin-1-yl]methyl]-6-methyl-morpholin-4-yl]-2-deuterio-quinoline-8-carbonitrile] | -2.5 | 7.5 | 7.64
CO[C@@H]1CN(c2ccc(C3CN(C[C@H]4CN(c5ccc(C#N)n6ncc(F)c56)C[C@@H](C)O4)C3)cn2)C[C@H]1N [Example 164, 4-[(2S,6R)-2-[[3-[6-[(3R,4R)-3-amino-4-methoxy-pyrrolidin-1-yl]-3-pyridyl]azetidin-1-yl]methyl]-6-methyl-morpholin-4-yl]-3-fluoro-pyrazolo[1,5-a]pyridine-7-carbonitrile] | 26 | 30.5 | 8.00
C[C@@H]1CN(c2ccc(C#N)n3ncc(F)c23)C[C@H](CN2CC(c3ccc(N4CC(C)(N)C4)nc3)C2)O1 [Example 158, 4-[(2S,6R)-2-[[3-[6-(3-amino-3-methyl-azetidin-1-yl)-3-pyridyl]azetidin-1-yl]methyl]-6-methyl-morpholin-4-yl]-3-fluoro-pyrazolo[1,5-a]pyridine-7-carbonitrile] | -7.5 | -0.5 | 8.52
C[C@@H]1CN(c2ccc(C#N)c3ncccc23)C[C@H](CN2CCC(c3cccc(C4CCNCC4)c3)CC2)O1 [Example 2, 5-[(2R,6S)-2-methyl-6-[[4-[3-(4-piperidyl)phenyl]-1-piperidyl]methyl]morpholin-4-yl]quinoline-8-carbonitrile] | 20 | 18 | 7.03
C[C@@H]1CN(c2ccc(C#N)c3ncccc23)C[C@H](CN2CCN(c3ccnc(N4C[C@H](N)[C@@H](F)C4)n3)CC2)O1 [Example 110, 5-[(2S,6R)-2-[[4-[2-[(3S,4S)-3-amino-4-fluoro-pyrrolidin-1-yl]pyrimidin-4-yl]piperazin-1-yl]methyl]-6-methyl-morpholin-4-yl]quinoline-8-carbonitrile] | 13.5 | 44 | 7.85
[2H]c1ccc2c(N3C[C@H](CN4CCN(c5ccc(N6CC7(CNCCO7)C6)nc5)CC4)O[C@H](C)C3)ccc(C#N)c2n1 [Example 152, 2-deuterio-5-[(2R,6S)-2-methyl-6-[[4-[6-(5-oxa-2,8-diazaspiro[3.5]nonan-2-yl)-3-pyridyl]piperazin-1-yl]methyl]morpholin-4-yl]quinoline-8-carbonitrile] | 12.5 | 35 | 7.82
CO[C@@H]1CN(c2ccc(N3CCN(C[C@H]4CN(c5ccc(C#N)n6ncc(F)c56)C[C@@H](C)O4)CC3)cn2)C[C@H]1N [Example 166, 4-[(2S,6R)-2-[[4-[6-[(3R,4R)-3-amino-4-methoxy-pyrrolidin-1-yl]-3-pyridyl]piperazin-1-yl]methyl]-6-methyl-morpholin-4-yl]-3-fluoro-pyrazolo[1,5-a]pyridine-7-carbonitrile] | 20 | 35.5 | 7.68
[2H]c1ccc2c(N3C[C@H](CN4CCN(c5nc(C)cc(N6C[C@H](OC)[C@@H](N)C6)n5)CC4)O[C@H](C)C3)ccc(C#N)c2n1 [Example 134, 5-[(2S,6R)-2-[[4-[4-[(3S,4S)-3-amino-4-methoxy-pyrrolidin-1-yl]-6-methyl-pyrimidin-2-yl]piperazin-1-yl]methyl]-6-methyl-morpholin-4-yl]-2-deuterio-quinoline-8-carbonitrile] | -4 | 47.5 | 7.60
